Read-outs that look alike come from different tables or passages of the source.
Experiments:
[1] = Acute toxicity in mice; parameters: species or system Swiss NMRI mice; details: mouse, in vivo; for LD50 at 240 h: 10 days observation, read-out: DL50
Source text: Swiss NMRI mice having an average weight of 20±2 g, subdivided in groups of 10 animals (5 females and 5 males) were used for each dose and for each method of administration.
The methods of administration were: oral by means of gastric probe, intramuscular and endovenous into the caudal vein.
(§1) The observation time after administration was 10 days.

[2] = physchem; details: solid storage, Titre of glucosamine
[3] = tested on: mice-embryo fibroblast; experiment: Stimulation of the production of tissue-bound GAG in mice-embryo fibroblast cultures, uptake of ^35 S; type: cell-based, mice (strain C57 BL/6 stCrl); details: Mus musculus, Fibroblast, 24 h, read-out: Δ % over non-treated controls, tissue-bound GAG
Experimental: (§2) For this purpose, primary cultures of mice-embryo fibroblasts (strain C57 BL/6 stCrl) were prepared by mechanical and enzymatic dissociation (in Trypsin Versene mixture-Microbiological Associates) of the embryos taken from the mother on the 18th day of pregnancy. The culture medium is the Eagle medium modified by Dulbecco and supplemented with 15% of calf foetus serum. The incubation atmosphere consists of 5% of carbon dioxide in air at 37° C. 24 hours after innoculation, the medium is replaced by a new medium containing the drug under examination and the radioactive precursor (Na2^35 SO4) for the measurement of the synthesis both of soluble and tissue-bound GAG; the culture is left to incubate for a further 24 hours and then the culture medium (containing the soluble GAG) and fibroblasts (containing the tissue-bound GAG) are separated.
(§3) The soluble GAG are isolated from the culture medium by precipitation with a solution of 5% trichloroacetic acid in ice-water while the fibroblast residues, containing the tissue-bound GAG, after repeated washings with physiological solutions, are dissolved in [sequence] or VERSENE.
(§4) The quantity of ^35 S incorporated both in the soluble GAG and in the tissue-bound GAG are evaluated by the usual scintillation methods and expressed in cpm (counts per minute).
(§5) The tests were carried out five times for each sample in order to allow the results to be evaluated statistically.

[4] = tested on: mice-embryo fibroblast; experiment: Stimulation of the production of soluble GAG in mice-embryo fibroblast cultures, uptake of ^35 S; type: cell-based, mice (strain C57 BL/6 stCrl); details: Mus musculus, Fibroblast, 24 h, read-out: Δ % over non-treated controls, soluble GAG
Experimental: as §2, §3, §4, §5

[5] = Acute toxicity in rats; parameters: species or system Sprague Dawley albino rats; details: rat, in vivo; for LD50 at 240 h: 10 days observation, read-out: DL50
Source text: Sprague Dawley albino rats having an average weight of about 150 g, subdivided into groups of 10 animals (5 males and 5 females) were used for each dose and for each method of administration.
The methods of administration were: oral by means of a gastric probe, intramuscular and endovenous into the caudal vein.
as §1

[6] = tested on: granuloma from cotton pellets; experiment: Anti-inflammatory activity, granuloma induced by cotton pellets; type: in vivo, female albino rats of the Sprague Dawley strain; details: 4 days; for Average dry weight of the granuloma (average ± s.e.): in mg (unit assumed)
Experimental: The test consists of evaluating the capacity of the substances under examination to inhibit the formation of granuloma following the subcutaneous implantation of extraneous bodies (in this case, cotton pellets). […] One group of animals was used as a control. […] After the subcutaneous implant of 2 cotton pellets each having a weight of 20 mg into the dorsal region, the animals were administered daily, for 4 consecutive days, with the substances under examination in the doses given above.

[7] = im, intramuscular, max. dose 3000 mg/kg
[8] = iv, endovenous, max. dose 1500 mg/kg

Compound N[C@H]1C(O)O[C@H](CO)[C@@H](O)[C@@H]1O.O=S(=O)(O)O (stereo partly shown) [Glucosamine sulphate, glucosamine sulphate] has an LD50 at 240 h ([1]; im, intramuscular) of over 3000 mg/kg, a mortality at 240 h [1, 7] of 0% and an LD50 at 240 h ([1]; iv, endovenous) of over 1500 mg/kg. The mortality at 240 h [1, 8] was 0%, the LD50 at 240 h ([1]; oral) was over 5000 mg/kg and the mortality at 240 h ([1]; oral, max. dose 5000 mg/kg) was 0%. For the same compound, the remaining at 8 h [2] was 95.8%, the remaining at 16 h [2] was 73.8% and the remaining at 72 h [2] was 98.4%. The remaining at 168 h [2] was 98.3%, the remaining at 360 h [2] was 100% and the remaining at 720 h [2] was 99.4%. The remaining at 1440 h [2] was 98.1%, the Appearance (15° C., 30% R.H., 0 days) was 1 and the Titre of glucosamine (15° C., 30% R.H., 0 days) was 98.7%. The Appearance (15° C., 30% R.H., 7 days) was 1, the Appearance (15° C., 30% R.H., 15 days) was 1 and the Appearance (15° C., 30% R.H., 30 days) was 1. The Appearance (15° C., 30% R.H., 60 days) was 1, the Appearance (15° C., 30% R.H., 120 days) was 2 and the Appearance (15° C., 30% R.H., 360 days) was 2-3. It also gave an Appearance (15° C., 45% R.H., 0 days) of 1, an Appearance (15° C., 45% R.H., 7 days) of 1 and an Appearance (15° C., 45% R.H., 15 days) of 1. The Appearance (15° C., 45% R.H., 30 days) was 1, the Appearance (15° C., 45% R.H., 60 days) was 2 and the Appearance (15° C., 45% R.H., 120 days) was 4. It also gave an Appearance (15° C., 45% R.H., 360 days) of 6, an Appearance (15° C., 60% R.H., 0 days) of 1 and an Appearance (15° C., 60% R.H., 3 days) of 1. The Appearance (15° C., 60% R.H., 6 days) was 3, the Appearance (15° C., 60% R.H., 12 days) was 5 and the Appearance (15° C., 60% R.H., 24 days) was 6. For the same compound, the Appearance (15° C., 60% R.H., 36 days) was 6, the Appearance (15° C., 60% R.H., 48 days) was 6 and the Appearance (25° C., 30% R.H., 0 days) was 1. It also gave a Titre of glucosamine (25° C., 30% R.H., 0 days) of 99.6%, an Appearance (25° C., 30% R.H., 7 days) of 1 and an Appearance (25° C., 30% R.H., 15 days) of 1. The Appearance (25° C., 30% R.H., 30 days) was 1, the Appearance (25° C., 30% R.H., 60 days) was 2 and the Appearance (25° C., 30% R.H., 120 days) was 3. For the same compound, the Appearance (25° C., 30% R.H., 360 days) was 4, the Appearance (25° C., 45% R.H., 0 days) was 1 and the Titre of glucosamine (25° C., 45% R.H., 0 days) was 100.5%. For the same compound, the Appearance (25° C., 45% R.H., 3 days) was 1, the Appearance (25° C., 45% R.H., 6 days) was 1 and the Appearance (25° C., 45% R.H., 12 days) was 2. It also gave an Appearance (25° C., 45% R.H., 24 days) of 3, an Appearance (25° C., 45% R.H., 36 days) of 5 and an Appearance (25° C., 45% R.H., 48 days) of 6. For the same compound, the “Time to complete decomposition” value (25° C., 60% R.H.) was 36 h, the Appearance (25° C., 60% R.H., 0 hours) was 1 and the Appearance (25° C., 60% R.H., 2 hours) was 1. For the same compound, the Appearance (25° C., 60% R.H., 4 hours) was 1, the Appearance (25° C., 60% R.H., 8 hours) was 2 and the Appearance (25° C., 60% R.H., 16 hours) was 3. The Appearance (25° C., 60% R.H., 24 hours) was 4, the Appearance (25° C., 60% R.H., 36 hours) was 6 and the Titre of glucosamine (solid storage, 24 h) was 44.6%. The Titre of glucosamine (solid storage, 72 h) was 100.3%, the Titre of glucosamine (solid storage, 576 h) was 74.5% and the Titre of glucosamine (solid storage, 864 h) was 29.6%. The activation at 10 µg/mL [3] was 32.7%, the activation at 50 µg/mL [3] was 75.6% and the activation at 100 µg/mL [3] was 94.7%. It also gave an activation at 10 µg/mL [4] of 24.3%, an activation at 50 µg/mL [4] of 96% and an activation at 100 µg/mL [4] of 71.2%. For the same compound, the LD50 at 240 h ([5]; im, intramuscular) was over 3000 mg/kg, the mortality at 240 h [5, 7] was 0% and the LD50 at 240 h ([5]; iv, endovenous) was over 1500 mg/kg. It also gave a mortality at 240 h [5, 8] of 0%, an LD50 at 240 h ([5]; oral) of over 5000 mg/kg and a mortality at 240 h ([5]; oral, max. dose 5000 mg/kg) of 0%. The “% Inhibition of granuloma” value ([6]; 300 mg/kg/os daily) was 40.9%, the “Average dry weight of the granuloma (average ± s.e.)” value ([6]; 300 mg/kg/os daily) was 91.2 ± 10.8 and the “% Inhibition of granuloma” value ([6]; 600 mg/kg/os daily) was 54.1%. The “Average dry weight of the granuloma (average ± s.e.)” value ([6]; 600 mg/kg/os daily) was 70.7 ± 7.9.

Source: US4642340A, “Stable compounds of glucosamine sulphate” (Rotta Research Laboratorium S.p.A., priority 1981, dated 1987)
